{
  "source": "patent US10421723B2",
  "about": "“2,3-diacylated, 2- and 3-mono-acylated alkylated imino sugars exhibiting glucosidase inhibition and their method of use” (priority 2016, dated 2019)",
  "key": {"target viruses": {"tested_on": "target viruses", "details": "cited from earlier work"}, "[1]": {"test": "Stability and conversion in simulated gastric fluid", "assay_type": "in vitro ADME", "details": "4 h, 37° C.", "description": "The stability of exemplary compounds of the present invention and their conversion to their active derivatives in simulated gastric fluid is evaluated. The working solutions of test compounds and control compound erythromycin were prepared in DMSO at the concentration of 500 μM. 2 μL of the working solution and 198 μL of simulated gastric fluids were added into centrifuge tubes to achieve a final concentration of […] incubated at 37° C. water bath with shaking at approximately 60 rpm. One of the centrifuge tubes was taken at designated time points including 0, 30, 60, 90 and 120 minutes. The assay was performed in duplicate. The reaction was stopped by adding 5 volumes of cold quench solution (acetonitrile containing internal standards (IS, 100 nM Alprazolam, 500 nM Labetalol and 2 μM Ketoprofen)) to the spiked simulated gastric fluids samples at the appointed time points. Another time 0 samples of parent compound were also prepared, and they were used to calculate the conversion percentages of prodrugs to parent compound (used as T0-2). Samples were vortexed for 2 minutes and centrifuged at 20,000 g for 15 minutes at 4° C. to precipitate protein. And then 50 μL of the supernatant was transferred to a new 96-well plate with 100 μL quench solution and 100 μL water for LC-MS/MS analysis."}, "[2]": {"test": "Stability and conversion in simulated intestinal fluids", "assay_type": "in vitro ADME", "details": "4 h, 5 μM, 37° C.", "description": "The stability of exemplary compounds of the present invention and their conversion to active derivatives in simulated intestinal fluids is evaluated. The working solutions of test compounds and control compound chlorambucil were prepared in DMSO at the concentration of 500 μM. 2 μL of the working solution and 198 μL of simulated intestinal fluids were added into centrifuge tubes to achieve a final concentration of 5 μM, and incubated at 37° C. water bath with shaking at approximately 60 rpm. One of the centrifuge tubes was taken at designated time points including 0, 1, 2, 3 and 4 hours. The assay was performed in duplicate. The reaction was stopped by adding 5 volumes of cold quench solution (acetonitrile containing internal standards (IS, 100 nM Alprazolam, 500 nM Labetalol and 2 μM Ketoprofen)) to the spiked simulated intestinal fluids samples at the appointed time points. Another time 0 samples of parent compound were also prepared, and they were used to calculate the conversion percentages of prodrugs to parent compound (used as T0-2). Samples were vortexed for 2 minutes and centrifuged at 20,000 g for 15 minutes at 4° C. to precipitate protein. And then 50 μL of the supernatant was transferred to a new 96-well plate with 100 μL quench solution and 100 μL water for LC-MS/MS analysis."}},
  "data": [
    {"smiles": "CCCC(=O)O[C@H]1CN2CC[C@H](O)[C@@H]2[C@@H](O)[C@@H]1O", "note": "[Celgosivir]", "values": [
      {"measurement": "concentrations to achieve EC50 values in tissue culture against their target viruses", "setting": "target viruses", "result": "near millimolar"}
    ]},
    {"smiles": "CC(C)COC(=O)OC1CN(CCCCCCN(C(=O)NC(C)(C)C)C2CCCCC2)C(CO)C(O)C1O", "note": "(stereo not shown) [XXVIII(b)]", "values": [
      {"measurement": "Stability in Gastric fluids, Remaining", "setting": "[1]", "result": 89.2, "unit": "%"},
      {"measurement": "Stability in Intestinal Fluid, Remaining", "setting": "[2]", "result": 70.9, "unit": "%"}
    ]},
    {"smiles": "CCCCOC(=O)OC1CN(CCCCCCN(C(=O)NC(C)(C)C)C2CCCCC2)C(CO)C(O)C1O", "note": "(stereo not shown) [XXVIII(a)]", "values": [
      {"measurement": "Stability in Gastric fluids, Remaining", "setting": "[1]", "result": 98.1, "unit": "%"},
      {"measurement": "Stability in Intestinal Fluid, Remaining", "setting": "[2]", "result": 62.7, "unit": "%"}
    ]},
    {"smiles": "CCCCOC(=O)OC1CN(CCCCCCN(C(=O)NC(C)(C)C)C2CCCCC2)C(CO)C(O)C1OC(=O)OCCCC", "note": "(stereo not shown) [XXVII(a)]", "values": [
      {"measurement": "Stability in Gastric fluids, Remaining", "setting": "[1]", "result": 93, "unit": "%"},
      {"measurement": "Stability in Intestinal Fluid, Remaining", "setting": "[2]", "result": 65.7, "unit": "%"}
    ]},
    {"smiles": "CCCCN1C[C@H](O)[C@@H](O)[C@H](O)[C@H]1CO", "note": "[NBDNJ, N-butyl-DNJ]", "values": [
      {"measurement": "concentrations to achieve EC50 values in tissue culture against their target viruses", "setting": "target viruses", "result": "near millimolar"}
    ]},
    {"smiles": "CC(NC(=O)OC(C)(C)C)C(=O)OC1C(O)CN(CCCCCCN(C(=O)NC(C)(C)C)C2CCCCC2)C(CO)C1O", "note": "(stereo not shown) [XXX(a)]", "values": [
      {"measurement": "Stability in Gastric fluids, Remaining", "setting": "[1]", "result": 81.1, "unit": "%"},
      {"measurement": "Stability in Intestinal Fluid, Remaining", "setting": "[2]", "result": 30.7, "unit": "%"}
    ]}
  ]
}
